These results are taken from patent publication US4017632A, “Phenoxyacetic acid derivatives” (Centre European de Recherches Pharmacologiques C.E.R.P.H.A., priority 1975, dated 1977).

A short description of data set [1]: Acute toxicity per os in mice. The note with it: mouse, in vivo, po; for LD50 at 48 h: male mice (Swiss C.D), per os, mortality after 48 hours, read-out: LD 50 per os. The method, then:
The compounds were administered in the usual way to lots of 10 male mice (Swiss C.D) of average weight 20 g. Mortality was assessed after 48 hours for toxicity per os.

For data set [2], the system named is retention of phenol red in the circulation. The experiment in a line: Uricosuric activity: retention of phenol red in the circulation of the rat. Type of data set: in vivo. The note with it: 100 mg/kg per os; for % of retention (phenol red), 15 mn: 15 min after phenol red injection; for % of retention (phenol red), 30 mn: 30 min after phenol red injection; for % of retention (phenol red), 45 mn: 45 min after phenol red injection; for % of retention (phenol red), 60 mn: 60 min after phenol red injection. How it is done:
This activity was determined by the ability of the compounds to cause retention of phenol red in the circulation of the rat, method described by
Scarborough h. c. and M. C. KINNEY G. R. --
The products were administered one hour before phenol red injection to batches of 5 rats of 250-280 g; anesthetized with ether, the animals received an I.V. injection of 1 cm3 of a 1% phenol red solution. Blood samplings were made 15, 30, 45 and 60 minutes after injection. The pink colour develop after addition to the plasma of an N/10 aqueous solution of sodium hydroxide.
For instance the compounds of examples 5 and 1, and benziodarone give the following results for a dosis of 100 mg/kg per os.

Another data set has as its system diuresis. The data set is described as follows: Diuretic activity in mice. Type of data set: in vivo. How it is done:
The activity is determined on mice. The ratio R of the mean values of diuresis obtained for the treated animals to the mean values for control animals are determined.

Data set [3] concerns urinary excretion and clearance of uric acid. The data set is described as follows: Uricosuric activity in the phosphate-mannitol infused mongrel dog (renal clearance). It is filed as in vivo. The method, then:
The uricosuric activity of the compound of example 1 was further studied.
The uricosuric activity is determined by intravenous administration of a test compound to the phosphate-mannitol infused mongrel dog as a rapid injection at doses of 5 or 15 mg/kg. Renal clearance studies are compared against control experiments conducted in the same dogs. The urate clearance is calculated from the plasma and urinary concentrations. […] For example, compound of example 1 at a dose of 5 mg/kg i.v. increased urate excretion as a percentage of glomerular filtration rate from a value of 27% up to 40% and at a dose of 15 mg/kg i.v. increased it from 28% up to 74%.

Regarding `O=C(O)COc1c(Br)cc(C(O)c2cccs2)cc1Br` (centres unmarked) [Example 5, 2,6-dibromo-4-(2-thienyl-hydroxy-methyl)-phenoxy-acetic acid], the LD50 at 48 h in data set [1] is more than 1000 mg/kg. Moreover, in data set [2], the “% of retention (phenol red), 15 mn” value is 68%; the “% of retention (phenol red), 30 mn” value stood at 123%; the “% of retention (phenol red), 45 mn” value turned out to be 105%; the “% of retention (phenol red), 60 mn” value worked out at 58%.
Turning to `C=C(CC)C(=O)c1ccc(OCC(=O)O)c(Cl)c1Cl` [ethacrynic acid, reference compound], the LD50 in data set [1] (P.O., ethacrynic acid, given in the diuretic activity section, read-out: DL 50 P.O.) was 600 mg/kg. Also, the “ratio R of mean diuresis of treated animals to control animals” value in the data set with diuresis (20 mg/kg P.O.) is given as 2.4.
Turning to `O=C(O)COc1ccc(C(O)c2cccs2)c(Cl)c1Cl` (centres unmarked) [Example 1, 2,3-dichloro-4-(2-thienyl-hydroxy-methyl)-phenoxy-acetic acid], in data set [1], the LD50 at 48 h stood at 1000 mg/kg. Besides, the “ratio R of mean diuresis of treated animals to control animals” value with diuresis (100 mg/kg P.O.) came out at 1.6. In addition, in data set [2], the “% of retention (phenol red), 15 mn” value came out at 51%; the “% of retention (phenol red), 30 mn” value is recorded as 44%; the “% of retention (phenol red), 45 mn” value is 31%; the “% of retention (phenol red), 60 mn” value is 28%. For the same molecule, the “urate excretion as a percentage of glomerular filtration rate” value in data set [3] (5 mg/kg i.v., increased from a value of 27%) is 40%. In data set [3] (15 mg/kg i.v., increased from 28%), the “urate excretion as a percentage of glomerular filtration rate” value was determined as 74%.
With `CCc1oc2ccccc2c1C(=O)c1cc(I)c(O)c(I)c1` [benziodarone, reference compound], in data set [1], the LD50 at 48 h stood at 1400 mg/kg. For the same molecule, in data set [2], the “% of retention (phenol red), 15 mn” value is recorded as 37%; the “% of retention (phenol red), 30 mn” value was determined as 50%; the “% of retention (phenol red), 45 mn” value was 53%; the “% of retention (phenol red), 60 mn” value came out at 18%.
